Test results from US8497381B2, “Antagonists of prostaglandin D2 receptors” (Panmira Pharmaceuticals, LLC, priority 2008, dated 2013).

Target: T1, human DP2 receptor (Homo sapiens, UniProt Q9Y5Y4)
T1 construct: expressed in transfected cells
T1 sequence (Q9Y5Y4 1-395): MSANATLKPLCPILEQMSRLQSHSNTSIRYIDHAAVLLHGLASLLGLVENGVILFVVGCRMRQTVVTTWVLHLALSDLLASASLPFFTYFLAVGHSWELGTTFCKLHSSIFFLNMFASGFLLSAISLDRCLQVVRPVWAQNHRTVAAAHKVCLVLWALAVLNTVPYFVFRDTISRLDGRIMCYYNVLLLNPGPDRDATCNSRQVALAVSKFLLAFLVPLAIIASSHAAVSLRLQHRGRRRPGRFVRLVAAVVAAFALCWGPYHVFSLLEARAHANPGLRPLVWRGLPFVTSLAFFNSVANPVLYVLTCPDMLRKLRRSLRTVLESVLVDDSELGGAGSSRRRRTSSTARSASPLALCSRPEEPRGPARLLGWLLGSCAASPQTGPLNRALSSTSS
Test: DP2/CRTH2 binding assay (radioligand binding using [3H]PGD2)
Conditions: [3H]PGD2, membranes of HEK293 cells stably expressing recombinant human DP2; read-out: hDP2 binding
Experimental: The ability of a compound to bind to the human DP2 receptor is assessed via a radioligand binding assay using [^3H]PGD2. HEK293 cells stably expressing recombinant human DP2 are resuspended in 10 mM Hepes, 7.4 containing 1 mM DTT, lysed and centrifuged at 75,000×g to pellet the membranes. The membranes are resuspended in 10 mM Hepes, 7.4 containing 1 mM DTT and 10% glycerol to approximately 5 mg protein/ml. Membranes (2-10 μg protein/well) are incubated in 96-well plates with 1 nM [^3H]PGD2 and test compound in Assay Buffer (50 mM Hepes, 10 mM MnCl2, 1 mM EDTA, plus or minus 0.2% human serum albumin, pH 7.4) for 60 minutes at room temperature. The reactions are terminated by rapid filtration through Whatman GF/C glass fibre filter plates. The filter plates were pre-soaked in 0.33% polythylenimine for 30 minutes at room temperature then washed in Wash Buffer (50 mM Hepes, 0.5 M NaCl pH 7.4) prior to harvesting. After harvesting, the filter plates are washed 3 times with 1 ml cold Wash Buffer then dried. Scintillant is then added to the plates and the radioactivity retained on the filters is determined on a Packard TopCount (Perkin Elmer). Specific binding is determined as total radioactive binding minus non-specific binding in the presence of 10 μM PGD2. IC50s were determined using GraphPad prism analysis of drug titration curves.

| SMILES | IC50 [nM] |
| --- | --- |
| COc1ccc(CC(=O)O)cc1-c1ccc(C(F)(F)F)cc1CN1CCOC1=O [Compound 1-1, [6-Methoxy-2′-(2-oxo-oxazolidin-3-ylmethyl)-4′-trifluoromethyl-biphenyl-3-yl]-acetic acid] | < 300 |
| COc1ccc(-c2ccc(C(F)(F)F)cc2CN2CCOC2=O)cc1CC(=O)O [Compound 1-2, [4-Methoxy-2′-(2-oxo-oxazolidin-3-ylmethyl)-4′-trifluoromethyl-biphenyl-3-yl]-acetic acid] | < 300 |
| C[C@H]1[C@@H](c2ccccc2)OC(=O)N1Cc1cc(C(F)(F)F)ccc1-c1cccc(CC(=O)O)c1 [Compound 1-6, [2′-((4S,5R)-4-Methyl-2-oxo-5-phenyl-oxazolidin-3-ylmethyl)-4′-trifluoromethyl-biphenyl-3-yl]-acetic acid] | 300 to 1000 |
| C[C@H]1[C@@H](c2ccccc2)OC(=O)N1Cc1cc(C(F)(F)F)ccc1-c1ccc(F)c(CC(=O)O)c1 [Compound 1-7, [4-Fluoro-2′-((4S,5R)-4-methyl-2-oxo-5-phenyl-oxazolidin-3-ylmethyl)-4′-trifluoromethyl-biphenyl-3-yl]-acetic acid] | 300 to 1000 |
| COc1ccc(C(C)C(=O)O)cc1-c1ccc(C(F)(F)F)cc1CN1C(=O)O[C@H](c2ccccc2)[C@@H]1C (stereo partly drawn) [Compound 1-12, 2-[6-Methoxy-2′-((4S,5R)-4-methyl-2-oxo-5-phenyl-oxazolidin-3-ylmethyl)-4′-trifluoromethyl-biphenyl-3-yl]-propionic acid] | < 300 |
| COc1ccc(CC(=O)O)cc1-c1ccc(C(F)(F)F)cc1CN1C(=O)O[C@H](c2cc(C(F)(F)F)cc(C(F)(F)F)c2)[C@@H]1C [Compound 1-13, {2′-[(4S,5R)-5-(3,5-Bis-trifluoromethyl-phenyl)-4-methyl-2-oxo-oxazolidin-3-ylmethyl]-6-methoxy-4′-trifluoromethyl-biphenyl-3-yl}-acetic acid] | < 300 |
| C[C@H]1[C@@H](c2ccccc2)OC(=O)N1Cc1cc(C(F)(F)F)ccc1-c1cc(CC(=O)O)ccc1OCc1ccc(Cl)cc1 [Compound 1-18, [6-(4-Chloro-benzyloxy)-2′-((4S,5R)-4-methyl-2-oxo-5-phenyl-oxazolidin-3-ylmethyl)-4′-trifluoromethyl-biphenyl-3-yl]-acetic acid] | < 300 |
| C[C@H]1[C@@H](c2ccccc2)OC(=O)N1Cc1cc(C(F)(F)F)ccc1-c1cc(CC(=O)O)ccc1-c1cccnc1 [Compound 1-20, [2′-((4S,5R)-4-Methyl-2-oxo-5-phenyl-oxazolidin-3-ylmethyl)-6-pyridin-3-yl-4′-trifluoromethyl-biphenyl-3-yl]-acetic acid] | < 300 |
| C[C@H]1[C@@H](c2ccccc2)OC(=O)N1Cc1cc(C(F)(F)F)ccc1-c1cc(CC(=O)O)ccc1-c1cnn(C)c1 [Compound 1-21, [2′-((4S,5R)-4-Methyl-2-oxo-5-phenyl-oxazolidin-3-ylmethyl)-6-(1-methyl-1H-pyrazol-4-yl)-4′-trifluoromethyl-biphenyl-3-yl]-acetic acid] | 300 to 1000 |
| COc1ccc(CC(=O)O)cc1-c1ccc(C(F)(F)F)cc1CN1C(=O)NC(C)(c2ccccc2)C1=O (stereo not shown) [Compound 2-1, [6-Methoxy-2′-(4-methyl-2,5-dioxo-4-phenyl-imidazolidin-1-ylmethyl)-4′-trifluoromethyl-biphenyl-3-yl]-acetic acid] | > 1000 |
| COc1ccc(CC(=O)O)cc1-c1ccc(C(F)(F)F)cc1CN1C(=O)N(CC(=O)O)C(C)(c2ccccc2)C1=O (stereo not shown) [Compound 2-2, [2′-(3-Carboxymethyl-4-methyl-2,5-dioxo-4-phenyl-imidazolidin-1-ylmethyl)-6-methoxy-4′-trifluoromethyl-biphenyl-3-yl]-acetic acid] | > 1000 |
| COc1ccc(CC(=O)O)cc1-c1ccc(C(F)(F)F)cc1CN1CCN=C1C [Compound 3-1, [6-Methoxy-2′-(2-methyl-4,5-dihydro-imidazol-1-ylmethyl)-4′-trifluoromethyl-biphenyl-3-yl]-acetic acid] | > 1000 |
| O=C(O)CCn1c2c(c3ccccc31)C[C@H](NS(=O)(=O)c1ccc(F)cc1)CC2 [Ramatroban, reference compound] | 300 to 1000 |

The remaining lines, values ahead:

| IC50 [nM] | SMILES |
| --- | --- |
| 300 to 1000 | COc1ccc(CC(=O)O)cc1-c1ccccc1CN1C(=O)O[C@H](c2ccccc2)[C@@H]1C [Compound 1-3, [6-Methoxy-2′-((4S,5R)-4-methyl-2-oxo-5-phenyl-oxazolidin-3-ylmethyl)-biphenyl-3-yl]-acetic acid] |
| < 300 | COc1ccc(CC(=O)O)cc1-c1ccc(F)cc1CN1C(=O)O[C@H](c2ccccc2)[C@@H]1C [Compound 1-4, [4′-Fluoro-6-methoxy-2′-((4S,5R)-4-methyl-2-oxo-5-phenyl-oxazolidin-3-ylmethyl)-biphenyl-3-yl]-acetic acid] |
| > 1000 | COc1ccc(-c2cc(CC(=O)O)ccc2OC)c(CN2C(=O)O[C@H](c3ccccc3)[C@@H]2C)c1 [Compound 1-5, [6,4′-Dimethoxy-2′-((4S,5R)-4-methyl-2-oxo-5-phenyl-oxazolidin-3-ylmethyl)-biphenyl-3-yl]-acetic acid] |
| < 300 | COc1ccc(-c2ccc(C(F)(F)F)cc2CN2C(=O)O[C@H](c3ccccc3)[C@@H]2C)cc1CC(=O)O [Compound 1-8, [4-Methoxy-2′-((4S,5R)-4-methyl-2-oxo-5-phenyl-oxazolidin-3-ylmethyl)-4′-trifluoromethyl-biphenyl-3-yl]-acetic acid] |
| < 300 | C[C@H]1[C@@H](c2ccccc2)OC(=O)N1Cc1cc(C(F)(F)F)ccc1-c1cc(CC(=O)O)ccc1F [Compound 1-9, [6-Fluoro-2′-((4S,5R)-4-methyl-2-oxo-5-phenyl-oxazolidin-3-ylmethyl)-4′-trifluoromethyl-biphenyl-3-yl]-acetic acid] |
| < 300 | COc1ccc(CC(=O)O)cc1-c1ccc(C(F)(F)F)cc1CN1C(=O)O[C@H](c2ccccc2)[C@@H]1C [Compound 1-10, [6-Methoxy-2′-((4S,5R)-4-methyl-2-oxo-5-phenyl-oxazolidin-3-ylmethyl)-4′-trifluoromethyl-biphenyl-3-yl]-acetic acid] |
| > 1000 | COc1ccc(CC(=O)O)cc1-c1ccc(C(F)(F)F)cc1CN1C(=O)O[C@@H](c2ccccc2)[C@H]1C [Compound 1-11, [6-Methoxy-2′-((4R,5S)-4-methyl-2-oxo-5-phenyl-oxazolidin-3-ylmethyl)-4′-trifluoromethyl-biphenyl-3-yl]-acetic acid] |
| < 300 | CCOc1ccc(CC(=O)O)cc1-c1ccc(C(F)(F)F)cc1CN1C(=O)O[C@H](c2ccccc2)[C@@H]1C [Compound 1-14, [6-Ethoxy-2′-((4S,5R)-4-methyl-2-oxo-5-phenyl-oxazolidin-3-ylmethyl)-4′-trifluoromethyl-biphenyl-3-yl]-acetic acid] |
| < 300 | C[C@H]1[C@@H](c2ccccc2)OC(=O)N1Cc1cc(C(F)(F)F)ccc1-c1cc(CC(=O)O)ccc1OCC1CC1 [Compound 1-15, [6-Cyclopropylmethoxy-2′-((4S,5R)-4-methyl-2-oxo-5-phenyl-oxazolidin-3-ylmethyl)-4′-trifluoromethyl-biphenyl-3-yl]-acetic acid] |
| 300 to 1000 | C[C@H]1[C@@H](c2ccccc2)OC(=O)N1Cc1cc(C(F)(F)F)ccc1-c1cc(CC(=O)O)ccc1OCC(=O)O [Compound 1-16, [6-Carboxymethoxy-2′-((4S,5R)-4-methyl-2-oxo-5-phenyl-oxazolidin-3-ylmethyl)-4′-trifluoromethyl-biphenyl-3-yl]-acetic acid] |
| < 300 | C[C@H]1[C@@H](c2ccccc2)OC(=O)N1Cc1cc(C(F)(F)F)ccc1-c1cc(CC(=O)O)ccc1OCc1ccccc1 [Compound 1-17, [6-Benzyloxy-2′-((4S,5R)-4-methyl-2-oxo-5-phenyl-oxazolidin-3-ylmethyl)-4′-trifluoromethyl-biphenyl-3-yl]-acetic acid] |
| < 300 | C[C@H]1[C@@H](c2ccccc2)OC(=O)N1Cc1cc(C(F)(F)F)ccc1-c1cc(CC(=O)O)ccc1-c1ccccc1 [Compound 1-19, [2″-((4S,5R)-4-Methyl-2-oxo-5-phenyl-oxazolidin-3-ylmethyl)-4″-trifluoromethyl-[1,1′;2′,1″]terphenyl-4′-yl]-acetic acid] |
